In the OligoGym collection:
After the bases stand the sugars from the 5' end (letter, count) and the backbone: PS all phosphorothioate, else s phosphorothioate and o phosphodiester by linkage. Methylation of C is not given here. e = 2'-O-(2-methoxyethyl) (MOE); k = constrained ethyl (cEt); d = 2'-deoxy (DNA); m = 2'-O-methyl

Biological target: HSD17B13
Conditions: ASO, HepaRG

| Sequence | target mRNA inhibition (1 µM) [%] | further results |
| --- | --- | --- |
| GGACCAGGGAATTTAT (sugars k3 d10 k3, PS) | 55 |  |
| GGACCAATATAATCCA (sugars k3 d10 k3, PS) | 20 |  |
| ATATGTCCAGGTTGAG (sugars kkdddddddddkekek, PS) | 28 |  |
| GAGGCTAGGGAAATCT (sugars k3 d10 k3, PS) | 56 |  |
| TGCTACTTGAACAGTC (sugars kkdddddddddkekek, PS) | 64 |  |
| TCTCTTAGCTGTGCAC (sugars k3 d9 k3 e1, PS) | 69 |  |
| TGAACAGTCTTAAACC (sugars kkdddddddddkekek, PS) | 34 |  |
| CCTAAGTTATTATCCC (sugars k3 d10 k3, PS) | 18 |  |
| AATGTATCTTATAAGA (sugars k3 d10 k3, PS) | 10 |  |
| AAGTTAGTATAGTTAT (sugars k3 d10 k3, PS) | 20 |  |
| GGTTGAGATAAAGCTG (sugars k3 d10 k3, PS) | 76 | target mRNA inhibition (0.02 µM): 0%; target mRNA inhibition (0.078 µM): 0%; target mRNA inhibition (0.313 µM): 37%; target mRNA inhibition (1.25 µM): 65%; target mRNA inhibition (5 µM): 86% |
| CATAGCTAACTCAGGC (sugars k3 d10 k3, PS) | 29 |  |
| ATAGCAAGCCAACAGA (sugars k3 d1 m1 d8 k3, PS) | 1 |  |
| GCTCTAATGTTTCTTG (sugars k3 d10 k3, PS) | 62 |  |
| AGGATTAATTCCCTTC (sugars k3 d10 k3, PS) | 19 |  |
| GTCTAAATTATTGCCT (sugars k3 d10 k3, PS) | 45 |  |
| GAAGTGTAATGCTCCC (sugars k3 d10 k3, PS) | 71 |  |
| GTACACGAAGCCTGAA (sugars k3 d10 k3, PS) | 42 |  |
| AGTAGAGAGCATAAGT (sugars k3 d10 k3, PS) | 52 |  |
| ATTGTATGAGGTCTCT (sugars k3 d10 k3, PS) | 49 |  |
| AGGCTAGGGAAATCTT (sugars kkdddddddddkekek, PS) | 45 |  |
| GCATCAAGACATTCTA (sugars kkdddddddddkekek, PS) | 43 |  |
| AGCCAGTACAGTTCCT (sugars k3 d9 k3 e1, PS) | 59 |  |
| TTGTTAAGCAGATGGC (sugars k3 d10 k3, PS) | 84 | target mRNA inhibition (0.02 µM): 1%; target mRNA inhibition (0.078 µM): 1%; target mRNA inhibition (0.313 µM): 30%; target mRNA inhibition (1.25 µM): 79%; target mRNA inhibition (5 µM): 85% |

| Sequence | target mRNA inhibition (1 µM) [%] | further results |
| --- | --- | --- |
| TTCATAGGGAGACCAT (sugars k3 d10 k3, PS) | 65 |  |
| GTTGATATTCTGTGGC (sugars kkdddddddddkekek, PS) | 69 |  |
| GTTGGAAGATGTATAC (sugars k3 d10 k3, PS) | 53 |  |
| CTCCAGTAATGAGAAC (sugars k3 d10 k3, PS) | 40 |  |
| ATATGTGAAGAGCTGG (sugars k3 d10 k3, PS) | 51 |  |
| AAACTTCACCAACGAC (sugars k3 d10 k3, PS) | 27 |  |
| CTAGTTGCAATGAGAT (sugars k3 d10 k3, PS) | 65 |  |
| AATGTCTTGGTAATCT (sugars k3 d10 k3, PS) | 20 |  |
| TCTTCACCTGATTTAG (sugars k3 d10 k3, PS) | 24 |  |
| ACACTAATGAATCATG (sugars k3 d10 k3, PS) | 7 |  |
| GTAGATGGTAAGTCAA (sugars k3 d10 k3, PS) | 86 | target mRNA inhibition (0.02 µM): 20%; target mRNA inhibition (0.078 µM): 35%; target mRNA inhibition (0.313 µM): 55%; target mRNA inhibition (1.25 µM): 84%; target mRNA inhibition (5 µM): 88% |
| GGGTGGTAACGGTGAT (sugars k3 d10 k3, PS) | 46 |  |
| CCAGTAAAAAATTGGT (sugars k3 d10 k3, PS) | 23 |  |
| CTATCAGACTTCTTAC (sugars k3 d10 k3, PS) | 39 |  |
| TGATACACCAATGCAG (sugars k3 d1 m1 d8 k3, PS) | 38 |  |
| TGATACACCAATGCAG (sugars kkdddddddddkekek, PS) | 62 |  |
| TAAACTGTATGCCTCT (sugars k3 d10 k3, PS) | 49 |  |
| GCTAGACAATTGCAAA (sugars k3 d10 k3, PS) | 77 |  |
| GCAGTTATTAGAAGTC (sugars k3 d10 k3, PS) | 76 | target mRNA inhibition (0.02 µM): 9%; target mRNA inhibition (0.078 µM): 22%; target mRNA inhibition (0.313 µM): 41%; target mRNA inhibition (1.25 µM): 74%; target mRNA inhibition (5 µM): 84% |
| GAGATTTGAAGGTTAG (sugars k3 d10 k3, PS) | 82 | target mRNA inhibition (0.02 µM): 0%; target mRNA inhibition (0.078 µM): 26%; target mRNA inhibition (0.313 µM): 54%; target mRNA inhibition (1.25 µM): 77%; target mRNA inhibition (5 µM): 92% |
| TCTTATCTTGGGCACC (sugars k3 d10 k3, PS) | 44 |  |
| TAGTAATCACAAGTAA (sugars kkdddddddddkekek, PS) | 55 |  |
| TTATAACTACAAGAGG (sugars kkdddddddddkekek, PS) | 55 |  |
| CAACACTAATCTCAGT (sugars k3 d10 k3, PS) | 4 |  |

| Sequence | target mRNA inhibition (1 µM) [%] | further results |
| --- | --- | --- |
| GCACAAGCACACTGTA (sugars k3 d10 k3, PS) | 7 |  |
| CTAATGTATGAGGTCT (sugars k3 d10 k3, PS) | 46 |  |
| ATCAGTTTTCCTCATG (sugars k3 d10 k3, PS) | 48 |  |
| GAGAUAAAGCTGCCTG (sugars k3 d1 m1 d8 k3, PS) | 39 |  |
| AGAGTCGGTCACCTTT (sugars kkdddddddddkekek, PS) | 61 |  |
| CCGTTTTGGGCTAATG (sugars k3 d9 k3 e1, PS) | 69 |  |
| AATAATAGCTCTATTG (sugars k3 d10 k3, PS) | 0 |  |
| TATTCCAGGATTTGCT (sugars k3 d10 k3, PS) | 43 |  |
| ATAGUCCATGCAAAAG (sugars k3 d1 m1 d8 k3, PS) | 57 |  |
| TGACTAATGCAAGATT (sugars k3 d10 k3, PS) | 45 |  |
| CTTTGAGACTCTTGTT (sugars k3 d10 k3, PS) | 61 |  |
| TTATACTTTTCCGTCT (sugars k3 d10 k3, PS) | 61 |  |
| AGTCCATGCAAAAGCA (sugars k3 d9 k3 e1, PS) | 80 | target mRNA inhibition (0.02 µM): 1%; target mRNA inhibition (0.078 µM): 15%; target mRNA inhibition (0.313 µM): 43%; target mRNA inhibition (1.25 µM): 74%; target mRNA inhibition (5 µM): 85% |
| CTTATTAAGTACTGTG (sugars k3 d10 k3, PS) | 0 |  |
| TGTTTTAGTATTTGGG (sugars k3 d10 k3, PS) | 48 |  |
| GTTCTTAATTACATTC (sugars k3 d10 k3, PS) | 64 |  |
| TGAGTTACATTACAGC (sugars k3 d10 k3, PS) | 90 | target mRNA inhibition (0.02 µM): 16%; target mRNA inhibition (0.078 µM): 34%; target mRNA inhibition (0.313 µM): 72%; target mRNA inhibition (1.25 µM): 86%; target mRNA inhibition (5 µM): 89% |
| ATCCCAACCAAACTTC (sugars k3 d10 k3, PS) | 15 |  |
| ATATTATCAGGACTGA (sugars k3 d10 k3, PS) | 47 |  |
| CAAAACCTTTGTTGCC (sugars k3 d10 k3, PS) | 14 |  |
| CTCTATTGGGCCAGGC (sugars k3 d10 k3, PS) | 46 |  |
| TGAACAGTCTTAAACC (sugars k3 d9 k3 e1, PS) | 61 |  |
| CCCAAACATGGATGTT (sugars k3 d10 k3, PS) | 72 |  |
| GACATAACTTCATAGT (sugars k3 d10 k3, PS) | 39 |  |

| Sequence | target mRNA inhibition (1 µM) [%] | further results |
| --- | --- | --- |
| CTCAATAACTGAGTTA (sugars k3 d10 k3, PS) | 4 |  |
| TGCTACTTGAACAGTC (sugars k3 d1 m1 d8 k3, PS) | 65 |  |
| GTTTATCATGTGCCAC (sugars k3 d10 k3, PS) | 83 | target mRNA inhibition (0.02 µM): 0%; target mRNA inhibition (0.078 µM): 21%; target mRNA inhibition (0.313 µM): 44%; target mRNA inhibition (1.25 µM): 76%; target mRNA inhibition (5 µM): 94% |
| TTATAACTGAGCTAGA (sugars k3 d10 k3, PS) | 8 |  |
| GATGTTCATGGCTTTG (sugars k3 d10 k3, PS) | 81 | target mRNA inhibition (0.02 µM): 0%; target mRNA inhibition (0.078 µM): 5%; target mRNA inhibition (0.313 µM): 75%; target mRNA inhibition (1.25 µM): 68% |
| ACCAAGAGGGTTTTTA (sugars k3 d10 k3, PS) | 7 |  |
| GCTGTAAGAGTCAGTA (sugars k3 d9 k3 e1, PS) | 52 |  |
| CTAGTGCCAAACCAAT (sugars k3 d9 k3 e1, PS) | 61 |  |
| TCACCTTATTAATATC (sugars k3 d10 k3, PS) | 0 |  |
| ATCTATCAGACTTCTT (sugars k3 d10 k3, PS) | 47 |  |
| TCACCTTTCATAATGT (sugars kkdddddddddkekek, PS) | 31 |  |
| TCCACTTGAATTCTGT (sugars k3 d10 k3, PS) | 32 |  |
| GAGAGTAATCAGTTTT (sugars k3 d10 k3, PS) | 27 |  |
| GTATTTGAGATTCACC (sugars k3 d10 k3, PS) | 41 |  |
| ATTGATTCGAAACTAT (sugars k3 d10 k3, PS) | 22 |  |
| GGTGGTAACGGTGATC (sugars kkdddddddddkekek, PS) | 39 |  |
| ATACAGGCCATAATCT (sugars k3 d10 k3, PS) | 0 |  |
| TGTCCACCTTTAAATG (sugars k3 d9 k3 e1, PS) | 28 |  |
| ACAGCATCAAGACATT (sugars k3 d10 k3, PS) | 53 |  |
| TGGAACAATATGGGAT (sugars k3 d10 k3, PS) | 46 |  |
| GATCTTAAGGATCATT (sugars k3 d10 k3, PS) | 0 |  |
| AGAAATTCACCTTGAC (sugars k3 d9 k3 e1, PS) | 7 |  |
